Assay results as given in ChEMBL document CHEMBL4706519, “Evaluation of N-phenyl-2-aminothiazoles for treatment of multi-drug resistant and intracellular Staphylococcus aureus infections” (Eur J Med Chem, 2020).
Values after ≈ are worked out from the molar mass of the structure shown.

What was measured:
J774 = assay: Cytotoxicity against mouse J774 cells assessed as cell viability at 32 ug/ml incubated for 2 hrs by MTS assay; assay type: cell-based; conditions: j774, 2 h, dose 32 µg/ml
Staphylococcus aureus [1] = assay: Bactericidal activity against methicillin-resistant Staphylococcus aureus USA400 NRS123 assessed as log reduction in viable bacteria count at 5 times MIC incubated for 2 hrs in soy broth followed by incubation for 18 to 20 hrs on agar plate by time kill assay; assay type: functional; conditions: time 20-22 hrs
[2] = Selectivity index, ratio of maximum non-toxic concentration for human Caco-2 cells to MIC for methicillin-resistant Staphylococcus aureus USA300 NRS384; assay type: toxicity
Staphylococcus aureus [3] = assay: Antibacterial activity against methicillin-resistant Staphylococcus aureus USA400 NRS123 infected in mouse J774 cells assessed as reduction in intracellular bacterial burden at 4 x MIC measured after 24 hrs relative to control; assay type: functional
Streptococcus pneumoniae [4] = assay: Antibacterial activity against methicillin-resistant Streptococcus pneumoniae ATCC 700677 assessed as inhibition of bacterial growth measured after 18 to 20 hrs by CLSI protocol based broth microdilution method; assay type: functional; conditions: time 18-20 hrs
Streptococcus pneumoniae [5] = assay: Antibacterial activity against cephalosporin-resistant Streptococcus pneumoniae ATCC 51916 assessed as inhibition of bacterial growth measured after 18 to 20 hrs by CLSI protocol based broth microdilution method; assay type: functional; conditions: time 18-20 hrs
Staphylococcus aureus [6] = assay: microbe, parasite or virus in culture; conditions: USA500 NRS385
Staphylococcus aureus [7] = assay: microbe, parasite or virus in culture; conditions: USA400 NRS123
Staphylococcus aureus [8] = assay: microbe, parasite or virus in culture; conditions: NRS119
Staphylococcus aureus [9] = assay: Antibacterial activity against vancomycin-resistant Staphylococcus aureus 12 assessed as inhibition of bacterial growth measured after 18 to 20 hrs by CLSI protocol based broth microdilution method; assay type: functional; conditions: time 18-20 hrs
Staphylococcus aureus [10] = assay: Ratio of MBC to MIC against methicillin-sensitive Staphylococcus aureus NRS107 assessed as inhibition of bacterial growth measured after 18 to 20 hrs by CLSI protocol based broth microdilution method; assay type: functional; conditions: time 18-20 hrs
Enterococcus faecium [11] = assay: Antibacterial activity against vancomycin-resistant Enterococcus faecium ATCC 700221 assessed as inhibition of bacterial growth measured after 18 to 20 hrs by CLSI protocol based broth microdilution method; assay type: functional; conditions: time 18-20 hrs
Staphylococcus aureus [12] = assay: Antibacterial activity against methicillin-resistant Staphylococcus aureus USA400 NRS123 infected in mouse J774 cells assessed as log reduction in intracellular bacterial burden at 4 x MIC measured after 24 hrs; assay type: functional
Staphylococcus aureus [13] = assay: microbe, parasite or virus in culture; conditions: USA700 NRS386
Staphylococcus aureus [14] = assay: Bactericidal activity against methicillin-resistant Staphylococcus aureus USA400 NRS123 assessed as eradication of bacterial count at 5 times MIC incubated for 8 hrs in soy broth followed by incubation for 18 to 20 hrs on agar plate by time kill assay; assay type: functional; conditions: time 26-28 hrs
Staphylococcus aureus [15] = assay: Ratio of MIC for methicillin-resistant Staphylococcus aureus USA400 NRS123 measured after 13th passage to MIC for methicillin-resistant Staphylococcus aureus USA400 NRS123 measured after 18 to 20 hrs by broth microdilution assay; assay type: functional
Staphylococcus aureus [16] = assay: Antibacterial activity against vancomycin-resistant Staphylococcus aureus 10 assessed as inhibition of bacterial growth measured after 18 to 20 hrs by CLSI protocol based broth microdilution method; assay type: functional; conditions: time 18-20 hrs
Listeria monocytogenes [17] = assay: Antibacterial activity against Listeria monocytogenes ATCC 19111 assessed as inhibition of bacterial growth measured after 18 to 20 hrs by CLSI protocol based broth microdilution method; assay type: functional; conditions: time 18-20 hrs
Staphylococcus aureus [18] = assay: Antibacterial activity against methicillin-resistant Staphylococcus aureus USA400 NRS123 infected in mouse J774 cells assessed as log reduction in intracellular bacterial burden at 2 x MIC measured after 24 hrs; assay type: functional
physchem = conditions: phosphate-buffered saline, pH 7.4
[19] = Selectivity index, ratio of maximum non-toxic concentration for human Caco-2 cells to MIC for methicillin-resistant Staphylococcus aureus USA400 NRS123; assay type: toxicity
Streptococcus pneumoniae [20] = assay: Ratio of MBC to MIC for cephalosporin-resistant Streptococcus pneumoniae ATCC 51916 assessed as inhibition of bacterial growth measured after 18 to 20 hrs by CLSI protocol based broth microdilution method; assay type: functional; conditions: time 18-20 hrs
Enterococcus faecium [21] = assay: Ratio of MBC to MIC for vancomycin-resistant Enterococcus faecium ATCC 700221 assessed as inhibition of bacterial growth measured after 18 to 20 hrs by CLSI protocol based broth microdilution method; assay type: functional; conditions: time 18-20 hrs
Escherichia coli = assay: Antibacterial activity against Escherichia coli JW55031 harboring toIC efflux mutant assessed as inhibition of bacterial growth measured after 18 to 20 hrs by broth microdilution method; assay type: functional; conditions: time 18-20 hrs
Staphylococcus aureus [22] = assay: microbe, parasite or virus in culture; conditions: NRS107
[23] = Selectivity index, ratio of maximum non-toxic concentration for human Caco-2 cells to MIC for methicillin-resistant Staphylococcus aureus USA700 NRS386; assay type: toxicity
[24] = Half life in human liver microsomes at 0.1 uM in absence of NADPH by LC/MS/MS analysis; assay type: ADME, Microsome
Enterococcus faecalis [25] = assay: Ratio of MBC to MIC for vancomycin-resistant Enterococcus faecalis ATCC 51299 assessed as inhibition of bacterial growth measured after 18 to 20 hrs by CLSI protocol based broth microdilution method; assay type: functional; conditions: time 18-20 hrs
[26] = Selectivity index, ratio of maximum non-toxic concentration for human Caco-2 cells to MIC for methicillin-resistant Staphylococcus aureus NRS119; assay type: toxicity
[27] = Half life in human liver microsomes at 0.1 uM in presence of NADPH by LC/MS/MS analysis
[28] = Intrinsic clearance in human liver microsomes at 0.1 uM in absence of NADPH measured upto 60 mins by LC/MS/MS analysis; assay type: ADME, Microsome; conditions: read-out: CLH
Staphylococcus aureus [29] = assay: microbe, parasite or virus in culture; conditions: ATCC 6538
Listeria monocytogenes [30] = assay: Ratio of MBC to MIC for Listeria monocytogenes ATCC 19111 assessed as inhibition of bacterial growth measured after 18 to 20 hrs by CLSI protocol based broth microdilution method; assay type: functional; conditions: time 18-20 hrs
Streptococcus pneumoniae [31] = assay: Ratio of MBC to MIC for methicillin-resistant Streptococcus pneumoniae ATCC 700677 assessed as inhibition of bacterial growth measured after 18 to 20 hrs by CLSI protocol based broth microdilution method; assay type: functional; conditions: time 18-20 hrs
Enterococcus faecalis [32] = assay: microbe, parasite or virus in culture; conditions: ATCC 51299

## C/C(=N\NC(=N)N)c1ccc(Nc2nc(-c3ccc(C)cc3)cs2)cc1
J774
  Activity: Non-Toxic
Staphylococcus aureus [1]
  Activity: 3 log10CFU/ml
[2]
  selectivity ratio: 16
Staphylococcus aureus [3]
  inhibition (INH): 99%
Streptococcus pneumoniae [4]
  MBC: 8 µg/mL (≈ 21.9 µM)
  MIC: 2 µg/mL (≈ 5.49 µM)
Streptococcus pneumoniae [5]
  MBC: 4 µg/mL (≈ 11 µM)
  MIC: 2 µg/mL (≈ 5.49 µM)
Staphylococcus aureus [6]
  MBC: 2 µg/mL (≈ 5.49 µM)
  MIC: 2 µg/mL (≈ 5.49 µM)
Staphylococcus aureus [7]
  MBC: 2 µg/mL (≈ 5.49 µM)
  MIC: 2 µg/mL (≈ 5.49 µM)
Staphylococcus aureus [8]
  MBC: 4 µg/mL (≈ 11 µM)
  MIC: 2 µg/mL (≈ 5.49 µM)
Staphylococcus aureus [9]
  MBC: 2 µg/mL (≈ 5.49 µM)
  MIC: 2 µg/mL (≈ 5.49 µM)
Staphylococcus aureus [10]
  Ratio: 1
Enterococcus faecium [11]
  MBC: 4 µg/mL (≈ 11 µM)
  MIC: 2 µg/mL (≈ 5.49 µM)
Staphylococcus aureus [12]
  Activity: 2.49 log10CFU/ml
Staphylococcus aureus [13]
  MBC: 2 µg/mL (≈ 5.49 µM)
  MIC: 2 µg/mL (≈ 5.49 µM)
Staphylococcus aureus [14]
  Activity: 100%
Staphylococcus aureus [15]
  Ratio: 1
Staphylococcus aureus [16]
  MBC: 2 µg/mL (≈ 5.49 µM)
  MIC: 2 µg/mL (≈ 5.49 µM)
Listeria monocytogenes [17]
  MBC: 2 µg/mL (≈ 5.49 µM)
  MIC: 1 µg/mL (≈ 2.74 µM)
Staphylococcus aureus [18]
  Activity: 1.19 log10CFU/ml
physchem
  solubility kinetic at 2 h: 26.7 µM (≈ 9.73 µg/mL)
[19]
  selectivity ratio: 16
Streptococcus pneumoniae [20]
  Ratio: 1
Enterococcus faecium [21]
  Ratio: 1
Escherichia coli
  MIC: 4 µg/mL (≈ 11 µM)
Staphylococcus aureus [22]
  MBC: 2 µg/mL (≈ 5.49 µM)
  MIC: 2 µg/mL (≈ 5.49 µM)
[23]
  selectivity ratio: 16
[24]
  half-life at 0.1 µM: 4.23 h
Enterococcus faecalis [25]
  Ratio: 1
[26]
  selectivity ratio: 16
[27]
  half-life at 0.1 µM: 1.96 h
[28]
  microsomal CLint at 0.1 µM: 27.3 µL/min/mg
Staphylococcus aureus [29]
  MBC: 4 µg/mL (≈ 11 µM)
  MIC: 2 µg/mL (≈ 5.49 µM)
Listeria monocytogenes [30]
  Ratio: 1
Streptococcus pneumoniae [31]
  Ratio: 1
Enterococcus faecalis [32]
  MBC: 4 µg/mL (≈ 11 µM)
  MIC: 2 µg/mL (≈ 5.49 µM)
